Starred links: 1 amine or outer side, 2 acyl side, 3 side chain; linkers in the order of their positions; H or OH if unused. Non-standard residues stand in square brackets, D forms with d. Residues, ends and D or L forms follow the SMILES beside them. ξ: configuration not given here. *: point of attachment. C20 diacid = O=C(O)CCCCCCCCCCCCCCCCCCC(=O)*; γGlu = O=C(O)[C@H](CCC(=O)[*:2])N[*:1]; Hyp = O=C(O)[C@@H]1C[C@@H](O)CN1; Trx = NC[C@H]1CC[C@H](C(=O)O)CC1; ξαMeN = CC(N)(CC(N)=O)C(=O)O; AEEA = NCCOCCOCC(=O)O; Inp = O=C(O)C1CCNCC1
Molecular target: T1, human amylin receptors (Homo sapiens, UniProt O60896+P30988)
T1 construct: host or cells: CHO-K1/Ga15/AMY3 cells, further stably transfected with a CRE-luciferase plasmid
T1 sequence (P30988 25-474): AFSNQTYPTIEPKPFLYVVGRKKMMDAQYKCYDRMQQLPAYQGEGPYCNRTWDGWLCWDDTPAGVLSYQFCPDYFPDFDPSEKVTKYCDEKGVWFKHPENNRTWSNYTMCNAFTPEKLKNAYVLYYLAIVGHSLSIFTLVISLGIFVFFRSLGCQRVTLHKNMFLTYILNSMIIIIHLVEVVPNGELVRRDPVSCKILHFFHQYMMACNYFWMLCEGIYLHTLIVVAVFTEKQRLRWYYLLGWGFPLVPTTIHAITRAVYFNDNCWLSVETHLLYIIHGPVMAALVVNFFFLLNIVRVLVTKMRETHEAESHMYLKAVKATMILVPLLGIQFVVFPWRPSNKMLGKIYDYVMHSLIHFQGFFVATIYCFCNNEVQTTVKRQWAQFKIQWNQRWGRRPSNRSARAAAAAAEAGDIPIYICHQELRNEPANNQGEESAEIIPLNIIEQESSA
T1 sequence (O60896 24-148 partner): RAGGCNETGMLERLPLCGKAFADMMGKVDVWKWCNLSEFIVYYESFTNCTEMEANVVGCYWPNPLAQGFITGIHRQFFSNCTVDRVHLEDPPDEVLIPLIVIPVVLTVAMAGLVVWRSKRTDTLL
Test: Luciferase assay in stably transfected amylin receptor/CRE-luc CHO cell line
Assay type: cell-based
Conditions: for Relative activity: EC50 ratio of Cagrilintide to the compound, Cagrilintide 100%
Excerpt: The objective of this assay is to test the potency of derivatives of polypeptides of the present application on human amylin receptors in vitro using a luciferase assay. Using the standard protocol, CHO-K1/Ga15/AMY3 cells (purchased from GenScript, with the calcitonin receptor and the receptor activity modifying peptide (RAMP) constructed already) were transfected with a plasmid containing a luciferase expression cassette driven by multiple copies of cAMP response elements (CREs). The cells were cultured in an F12 medium containing 200 μg/mL Zeocin, 2 μg/mL puromycin, 100 μg/mL hygromycin, and 400 μg/mL G418 to afford a stably transfected amylin receptor/CRE-luc cell line. The lyophilized powder from Example 1 was dissolved in 20 mM phosphate buffer solution with a pH of 7.0, and diluted in a growth medium (F12 culture medium containing 10% FBS) to give a derivative sample with an initial concentration of 10 nM, which was then subjected to a 5-fold serial dilution in the growth medium to obtain seven samples with concentrations between […]. In each well of a white 96-well plate, 50 μL of the tested sample solution was added with a corresponding concentration. The stably transfected amylin receptor/CRE-luc CHO cells were resuspended in the growth medium at a certain density, and 50 μL of the cell suspension was added at a density of about 20000 cells per well to the white 96-well plate containing the tested sample solution. After incubation of 24 hours at 37° C. and 5% CO2, 100 μL of a Luciferase substrate was added to each well, incubated for 3 minutes, and finally was tested for luminescence on SpectraMax L (Molecular Devices) with the software SoftMax Pro 7.0.3 GxP.

Relative activity [%]	EC50 (amylin receptor/CRE-luc CHO cells, 24 hours incubation, luminescence) [nM]	SMILES
233	–	CC[C@H](C)[C@H](NC(=O)[C@@H]1CCCN1C(=O)[C@H](CCCCN)NC(=O)[C@H](CC(C)C)NC(=O)C(C)(CC(N)=O)NC(=O)[C@H](CC(N)=O)NC(=O)[C@H](CO)NC(=O)[C@H](CO)NC(=O)[C@H](Cc1c[nH]cn1)NC(=O)[C@H](CCCNC(=N)N)NC(=O)[C@H](CC(C)C)NC(=O)[C@H](Cc1ccccc1)NC(=O)[C@H](CC(=O)O)NC(=O)[C@H](C)NC(=O)[C@H](CC(C)C)NC(=O)[C@H](CCCNC(=N)N)NC(=O)[C@H](CCC(N)=O)NC(=O)[C@@H](NC(=O)[C@H](C)NC(=O)[C@H](C)NC(=O)[C@@H](NC(=O)[C@H](CO)NC(=O)[C@H](CC(C)C)NC(=O)[C@H](CCC(N)=O)NC(=O)[C@H](CO)NC(=O)[C@H](C)NC(=O)CC[C@H](NC(=O)CCCCCCCCCCCCCCCCCCC(=O)O)C(=O)O)[C@@H](C)O)[C@@H](C)O)C(=O)N[C@@H](CC(C)C)C(=O)N1CCC[C@H]1C(=O)N1CCC[C@H]1C(=O)N[C@H](C(=O)N[C@@H](CC(N)=O)C(=O)N[C@H](C(=O)NCC(=O)N[C@@H](CO)C(=O)N[C@@H](CC(N)=O)C(=O)N[C@H](C(=O)N1C[C@H](O)C[C@H]1C(N)=O)[C@@H](C)O)C(C)C)[C@@H](C)O (stereo partly shown) [M55] ({C20 diacid-γGlu}-ASQLSTAATQRLADFLRHSSN[ξαMeN]LKPILPPTNVGSNT[Hyp]-NH2)
126	0.023	CC[C@H](C)[C@H](NC(=O)[C@H](CC(=O)O)NC(=O)[C@H](CCCNC(=N)N)NC(=O)[C@H](CC(=O)O)NC(=O)[C@H](CCCNC(=N)N)NC(=O)[C@H](CC(=O)O)NC(=O)[C@@H](NC(=O)[C@H](Cc1ccccc1)NC(=O)[C@H](Cc1c[nH]cn1)NC(=O)[C@H](CCCNC(=N)N)NC(=O)[C@H](CC(C)C)NC(=O)[C@H](Cc1ccccc1)NC(=O)[C@H](CC(=O)O)NC(=O)[C@H](C)NC(=O)[C@H](CC(C)C)NC(=O)[C@H](CCCNC(=N)N)NC(=O)[C@H](CCC(N)=O)NC(=O)[C@@H](NC(=O)[C@H](C)NC(=O)[C@H](C)NC(=O)[C@@H](NC(=O)[C@H](CO)NC(=O)[C@H](CC(C)C)NC(=O)[C@H](CCC(N)=O)NC(=O)[C@H](CO)NC(=O)[C@H](C)NC(=O)COCCOCCNC(=O)COCCOCCNC(=O)C1CCN(C(=O)CCCCCCCCCCCCCCCCCCC(=O)O)CC1)[C@@H](C)O)[C@@H](C)O)[C@@H](C)O)C(=O)N[C@@H](CC(C)C)C(=O)N1CCC[C@H]1C(=O)N1CCC[C@H]1C(=O)N[C@H](C(=O)N[C@@H](CC(N)=O)C(=O)N[C@H](C(=O)NCC(=O)N[C@@H](CO)C(=O)N[C@@H](CC(N)=O)C(=O)N[C@H](C(=O)N1CCC[C@H]1C(N)=O)[C@@H](C)O)C(C)C)[C@@H](C)O [M21] ({C20 diacid-Inp-AEEA-AEEA}-ASQLSTAATQRLADFLRHFTDRDRDILPPTNVGSNTP-NH2)
124	–	CC[C@H](C)[C@H](NC(=O)[C@@H]1CCCN1C(=O)[C@H](CCCCN)NC(=O)[C@H](CC(C)C)NC(=O)[C@H](CC(N)=O)NC(=O)[C@H](CC(N)=O)NC(=O)[C@H](CO)NC(=O)[C@H](CO)NC(=O)[C@H](Cc1c[nH]cn1)NC(=O)[C@H](CCCNC(=N)N)NC(=O)[C@H](CC(C)C)NC(=O)[C@H](Cc1ccccc1)NC(=O)[C@H](CC(=O)O)NC(=O)[C@H](C)NC(=O)[C@H](CC(C)C)NC(=O)[C@H](CCCNC(=N)N)NC(=O)[C@H](CCC(N)=O)NC(=O)[C@@H](NC(=O)[C@H](C)NC(=O)[C@H](C)NC(=O)[C@@H](NC(=O)[C@H](CO)NC(=O)[C@H](CC(C)C)NC(=O)[C@H](CCC(N)=O)NC(=O)[C@H](CO)NC(=O)[C@H](C)NC(=O)COCCOCCNC(=O)COCCOCCNC(=O)[C@H]1CC[C@H](CNC(=O)CCCCCCCCCCCCCCCCCCC(=O)O)CC1)[C@@H](C)O)[C@@H](C)O)C(=O)N[C@@H](CC(C)C)C(=O)N1CCC[C@H]1C(=O)N1CCC[C@H]1C(=O)N[C@H](C(=O)N[C@@H](CC(N)=O)C(=O)N[C@H](C(=O)NCC(=O)N[C@@H](CO)C(=O)N[C@@H](CC(N)=O)C(=O)N[C@H](C(=O)N1C[C@H](O)C[C@H]1C(N)=O)[C@@H](C)O)C(C)C)[C@@H](C)O [M35] ({C20 diacid-Trx-AEEA-AEEA}-ASQLSTAATQRLADFLRHSSNNLKPILPPTNVGSNT[Hyp]-NH2)
